Laboratory results as given in patent US20080107613A1, “Pharmaceutical composition comprising a macrolide t-cell immunomodulator and anti-photoaging agent” (priority 2004, published 2008).

Tests used:
[1] = system: pyrimidine/thymine dimers in DNA extracted from epidermis; test: Thymine dimer levels in human epidermis after simulated solar radiation (immunoslot blot, chemoluminescence image analysis); type: in vivo; settings: skin sites of subjects with or without atopic dermatitis pretreated with pimecrolimus, 1 hour post-irradiation
Description: Similar results are obtained with skin from subjects receiving pimecrolimus, either with or without skin disease (atopic dermatitis), exposed to simulated solar radiation, when DNA is extracted from epidermis biopsied 1 hour and 24 hours after irradiation, as measured by pyrimidine dimer visualization by immunoslot blot and quantification by chemoluminescence image analysis: at 1 hour post-irradiation thymine dimer levels are clearly lower as compared to untreated control, indicative of reduced dimer production in skin sites pretreated with pimecrolimus.

[2] = system: DNA damage induced by UV light in mouse skin (epidermal thymine dimers); settings: hairless mice pretreated with 1% pimecrolimus cream or 0.1% tacrolimus ointment; measured one hour after 1 J/cm^2 UVB irradiation; cited from earlier work
[3] = system: UVB-induced apoptosis in mouse skin; settings: hairless mice pretreated with 1% pimecrolimus cream or 0.1% tacrolimus ointment; UVB irradiation; versus untreated mice; cited from earlier work

Compound | thymine dimer levels as compared to untreated control [1] | decrease of amount of epidermal thymine dimers as compared to untreated mice [2] [%] | UVB-induced apoptosis [3]
{[1E-(1R,3R,4S)]1R,9S,12S, 13R,14S,17R,18E,21S,23S,24R,25S,27R}-12-[2-(4-chloro-3-methoxycyclohexyl)-1-methylvinyl]-17-ethyl-1,14-dihydroxy-23,25-dimethoxy-13,19,21,27-tetramethyl-11,28,dioxa-4-azatricyclo [22.3.1.0(4,9)]octacos-18-ene-2,3,10,16-tetraone [pimecrolimus] | clearly lower | 89 | less pronounced
C=CC[C@@H]1/C=C(\C)C[C@H](C)C[C@H](OC)[C@H]2O[C@@](O)(C(=O)C(=O)N3CCCC[C@H]3C(=O)O[C@H](/C(C)=C/[C@@H]3CC[C@@H](O)[C@H](OC)C3)[C@H](C)[C@@H](O)CC1=O)[C@H](C)C[C@@H]2OC [tacrolimus] | – | 84 | less pronounced
